Measurements from US10357496B2, “Methods, formulations, and kits for rapidly repleting folate levels in women” (SOUTH ALABAMA MEDICAL SCIENCE FOUNDATION, priority 2011, dated 2019).

Assays:
[1] = system: mice homozygous for loss of folate binding protein 1; settings: 10.75 to 43.0 micromoles/kg/day; untreated mice died in utero; optimal between days E7-E9; cited from earlier work
[2] = cited from earlier work
[3] = Trial B; microbiological assay
Experimental: (§1) The 21 volunteers with a value below 25 nM serum folate at screening ranged between 20 to 44 years old.

[4] = Experimental: A study of the rate of increase of serum folate with 5-methyl-6S-tetrahydrofolate (6S-5-MTHF) was performed with women of child bearing age (final range: 20 to 44 years old). Volunteers were screened for fasting serum folate, and the lower quintile enrolled (n=21 participants). On the first day, a baseline fasting blood sample was obtained using a serum separator tube, and then a 7.5 mg (16.3 micromoles) oral dose of 6S-5-MTHF along with 0.5 mg of cyanocobalamin was administered. After 24 hours (day 2) and again after 48 hours (day 3) fasting blood samples were withdrawn, and the same doses of 6S-5-MTHF and vitamin B12 were administered. At 72 hours (day 4) and 96 hours (day 5), further blood samples were withdrawn, but without administration of vitamins for the first 10 Subjects.
These subjects returned on days 12 and 19 to provide serum samples. Compliance was established by counting the excess tablets at the end of the study.
The serum samples were frozen and then initially analyzed for total folate using the Immulite 2000 competitive binding assay, and later by microbiological assay using L. rhamnosus. Serum B12 was determined using the Immulite 2000 assay. This study and the following trials B and C were performed with approval by the Institutional Review Board of the University of South Alabama.

[5] = Trial B
Experimental: as §1

[6] = cited from earlier work; remark: listed apart in the source
cleft lip/palate = settings: periconceptual administration; cited from earlier work
[7] = format: in vivo, women
NTD = settings: 400 μg/d, cited from earlier work
recurrent NTD = settings: 4 mg/day; cited from earlier work
heart defects = settings: periconceptional use; cited from earlier work
[8] = Trial A: serum B12 by Immulite 2000 assay; format: in vivo, women; settings: three daily 0.5 mg doses, by 72 hours, subjects (n=6) with screening values below 330 pg/mL
Experimental: Serum B12 was determined using the Immulite 2000 assay.
The average vitamin B12 levels specifically for those subjects (n=6) with screening values below 330 pg/mL are shown in FIG. 2 (dotted line). By 72 hours after initiation of the three doses, serum B12 increased on average by about 80 pg/mL, and then fell slightly. Levels below 200 pg/mL are considered to be deficient, and those between 200 and 350 pg/mL are generally considered to be low-normal. Data beyond day 5 are not available for this trial, since only one of those with sub-optimal B12 status volunteered to continue.

Trial B: serum B12 = format: in vivo, women
Source text: It is believed that this may be due to uptake of the plasma B12 into the tissues of the deficient or mildly deficient subjects. None the less, by day 12 nearly half of the subjects were still in the normal range.

[9] = after 4 weeks of 800 μg (Brämswig et al.)

Nc1nc2c(c(=O)[nH]1)N(C=O)C(CNc1ccc(C(=O)N[C@@H](CCC(=O)O)C(=O)O)cc1)CN2 (some centres unmarked) [5-formyl-tetrahydrofolate]
survival and malformations of knockout mice [1]: some of these mice survived, but were subject to malformations

CN1c2c(nc(N)[nH]c2=O)NCC1CNc1ccc(C(=O)N[C@@H](CCC(=O)O)C(=O)O)cc1 (some centres unmarked) [5-methyltetrahydrofolate]
time to reach plateau in the plasma ([2]; 400 μg/d, young women): 12 weeks
survival and malformations of knockout mice [1]: some of these mice survived, but were subject to malformations

CN1c2c(nc(N)[nH]c2=O)NC[C@@H]1CNc1ccc(C(=O)N[C@@H](CCC(=O)O)C(=O)O)cc1 [6S-5-MTHF, 5-methyl-6S-tetrahydrofolate]
total folate: women below 50 nM during the study [3]: only a single person was ever below 50 nM
number of subjects not reaching greater than 37 nM serum total folate by the second day ([4]; Trial A): three
percent of subjects not reaching greater than 37 nM serum total folate by the second day ([4]; Trial A): 15%
total folate of all subjects by the fourth day ([4]; in vivo): above 55 nM
total folate of all subjects by the third day ([4]; in vivo): above 44 nM
average serum level maintained over the next two weeks ([5]; 0.8 mg/d 6S-5-MTHF starting on day 4): higher than 66 nM
average serum 5-MTHF, day 5 ([5]; 48 hours after last 7.5 mg dose, 0.8 mg/d maintenance from day 4): 74 nM
average serum 5-MTHF, day 4 ([5]; five 7.5 mg doses every 12 hours, 24 hours after last 7.5 mg dose): 98 nM

Nc1nc2ncc(CNc3ccc(C(=O)N[C@@H](CCC(=O)O)C(=O)O)cc3)nc2c(=O)[nH]1 [folic acid]
average plasma folate level [2, 9]: 50 nM
average red cell folate level [6, 9]: 919 nM
time of treatment to elevate red cell concentrations to 906 nM ([6]; daily dose of 800 μg): 4.2±3.5 weeks
reduction in recurrence of orofacial clefts (meta-analysis) (cleft lip/palate): two thirds
number of subjects below 44 nM total folate by the third day ([7]; Trial C): 9
number of subjects below 50 nM total folate by the fourth day ([7]; Trial C): 10
percent of subjects failing to achieve greater than 37 nM serum total folate by the second day ([7]; Trial C): 40%
number of subjects failing to achieve greater than 37 nM serum total folate by the second day ([7]; Trial C, of 20): 8
highest serum total folate in any measurement, single slow-responding subject ([7]; female, human, in vivo): ≤ 32 nM
NTD cases after treatment, southern region (NTD; 10 per 10,000 births before intervention): 6 per 10,000
NTD cases after treatment, northern region (NTD; 48 per 10,000 births before intervention): 10 per 10,000
recurrent NTD prevented compared to the control group (recurrent NTD): 72%
decrease in the prevalence of heart defects (heart defects): 20%

cyanocobalamin
average increase of serum B12 [8]: about 80 pg/mL
rate of increase of serum B12 (Trial B: serum B12; Trial B three daily 1.0 mg doses versus Trial A 0.5 mg doses): considerably greater than observed with the 0.5 mg doses
subjects with serum B12 still in the normal range by day 12 (Trial B: serum B12; Trial B, after three daily 1.0 mg doses): nearly half
half life of fall of serum B12 after discontinuation (Trial B: serum B12; Trial B, after three daily 1.0 mg doses, approximate exponential): about 2%
subjects with serum B12 in the normal range by day 4 (Trial B: serum B12; Trial B, three daily 1.0 mg doses): 88%
